Test: solubility test in water by visual inspection
Type: physicochemical
Details: room temperature (RT), one atmosphere, ultrasonic irradiation
Procedure: In this example, the solubility of the organic compound that can be used in the display apparatus of one embodiment of the present invention is described. Note that the solubility test was conducted at a pressure of one atmosphere at room temperature (RT).
(§1) Into a 110 mL sample bottle, 1.22 mg of 2tiiSF was put and 10 mL of water was added thereto. This mixture was irradiated with ultrasonic waves for one minute. A precipitated white powder was found by visual inspection for an insoluble residue. After further addition of 10 mL of water and one-minute ultrasonic wave irradiation, a precipitated white powder was found by visual inspection. This procedure was repeated until the dissolution was confirmed by visual inspection.
The precipitated white powder was found until the total amount of water reached 100 mL.
as §1, with “1.08” for “1.22”, “2hppSF” for “2tiiSF”
The precipitated white powder was found until the total amount of water reached 50 mL. […]

weight which can be dissolved in 1.0 mL of water: less than 0.012 mg
SMILES: c1ccc2c(c1)-c1ccccc1C21c2ccccc2-c2ccc(N3CCN4CCN=C43)cc21 [2tiiSF, 1-(9,9′-spirobi[9H-fluoren]-2-yl)-2,3,5,6-tetrahydro-1H-imidazo[1,2-a]imidazole]

Reference: patent publication US20240237526A1, “ORGANIC COMPOUND, LIGHT-EMITTING DEVICE, LIGHT-EMITTING APPARATUS, AND ELECTRONIC DEVICE” (SEMICONDUCTOR ENERGY LABORATORY CO., LTD., priority 2022, published 2024)
